Legend:
[1] = system: UDP-glucuronosyltransferases (UGT); assay: Metabolic stability assessed as cynomolgus monkey UGT-mediated metabolism by measuring half life; type: ADME, Macaca fascicularis
[2] = Oral bioavailability in cynomolgus monkey at 5 mg/kg; type: ADME, organism-based, Macaca fascicularis; conditions: in vivo
[3] = AUC (0 to 24 hrs) in human SK-OV-3 cells xenografted in nu/nu mouse xenograft model measured in tumor at 120 mg/kg, po QD; type: ADME, organism-based; parameters: time < 24 hr, route oral, dose 120 mg/kg
Cytochrome P450 (CYP) [4] = assay: Metabolic stability assessed as mouse CYP-mediated metabolism by measuring half life; type: ADME
[5] = AUC in cynomolgus monkey at 1 mg/kg, iv; type: ADME, organism-based, Macaca fascicularis; parameters: dose 1 mg/kg; conditions: in vivo
[6] = AUC in cynomolgus monkey at 5 mg/kg, po; type: ADME, organism-based, Macaca fascicularis; parameters: dose 5 mg/kg; conditions: in vivo
[7] = Volume of steady state distribution in mouse at 1 mg/kg, iv; type: ADME, organism-based; conditions: in vivo, read-out: Vdss
[8] = Apparent permeability across basolateral to apical side in human Caco-2 cells; type: ADME, cell-based
[9] = target: Indoleamine 2,3-dioxygenase 1 (Homo sapiens, UniProt P14902); assay: Inhibition of IDO1 in IFNgamma/LPS-stimulated human whole blood preincubated for 4 hrs followed by IFNgamma/LPS stimulation and incubated for 18 hrs by Rapid-fire mass spectrometry analysis; type: tissue-based
Chain of Indoleamine 2,3-dioxygenase 1 (P14902 whole entry): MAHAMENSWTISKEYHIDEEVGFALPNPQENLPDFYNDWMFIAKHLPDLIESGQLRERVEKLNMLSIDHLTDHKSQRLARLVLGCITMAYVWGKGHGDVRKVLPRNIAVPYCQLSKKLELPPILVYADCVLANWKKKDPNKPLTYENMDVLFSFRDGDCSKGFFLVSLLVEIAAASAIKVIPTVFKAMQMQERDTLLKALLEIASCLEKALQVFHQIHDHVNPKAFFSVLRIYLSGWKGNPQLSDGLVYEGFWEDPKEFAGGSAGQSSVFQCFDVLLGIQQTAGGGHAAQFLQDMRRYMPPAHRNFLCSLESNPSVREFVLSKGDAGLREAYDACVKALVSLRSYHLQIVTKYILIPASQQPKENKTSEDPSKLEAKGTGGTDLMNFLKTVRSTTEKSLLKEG

[10] = Drug metabolism in rat hepatocytes assessed as demethylated metabolite formation; type: ADME, cell-based, Hepatocyte
[11] = AUC (0 to 24 hrs) in human SK-OV-3 cells xenografted in nu/nu mouse xenograft model measured in tumor at 60 mg/kg, po QD; type: ADME, organism-based; parameters: time < 24 hr, route oral, dose 60 mg/kg
[12] = Half life in mouse at 1 mg/kg, iv; type: ADME, organism-based; conditions: in vivo
[13] = AUC in mouse at 10 mg/kg, po; type: ADME, organism-based; parameters: dose 10 mg/kg; conditions: in vivo
hERG (KCNH2) = hERG (KCNH2) (Homo sapiens, UniProt Q12809); assay: Inhibition of hERG (unknown origin) at 30 uM relative to control
Chain of hERG (KCNH2) (Q12809 whole entry): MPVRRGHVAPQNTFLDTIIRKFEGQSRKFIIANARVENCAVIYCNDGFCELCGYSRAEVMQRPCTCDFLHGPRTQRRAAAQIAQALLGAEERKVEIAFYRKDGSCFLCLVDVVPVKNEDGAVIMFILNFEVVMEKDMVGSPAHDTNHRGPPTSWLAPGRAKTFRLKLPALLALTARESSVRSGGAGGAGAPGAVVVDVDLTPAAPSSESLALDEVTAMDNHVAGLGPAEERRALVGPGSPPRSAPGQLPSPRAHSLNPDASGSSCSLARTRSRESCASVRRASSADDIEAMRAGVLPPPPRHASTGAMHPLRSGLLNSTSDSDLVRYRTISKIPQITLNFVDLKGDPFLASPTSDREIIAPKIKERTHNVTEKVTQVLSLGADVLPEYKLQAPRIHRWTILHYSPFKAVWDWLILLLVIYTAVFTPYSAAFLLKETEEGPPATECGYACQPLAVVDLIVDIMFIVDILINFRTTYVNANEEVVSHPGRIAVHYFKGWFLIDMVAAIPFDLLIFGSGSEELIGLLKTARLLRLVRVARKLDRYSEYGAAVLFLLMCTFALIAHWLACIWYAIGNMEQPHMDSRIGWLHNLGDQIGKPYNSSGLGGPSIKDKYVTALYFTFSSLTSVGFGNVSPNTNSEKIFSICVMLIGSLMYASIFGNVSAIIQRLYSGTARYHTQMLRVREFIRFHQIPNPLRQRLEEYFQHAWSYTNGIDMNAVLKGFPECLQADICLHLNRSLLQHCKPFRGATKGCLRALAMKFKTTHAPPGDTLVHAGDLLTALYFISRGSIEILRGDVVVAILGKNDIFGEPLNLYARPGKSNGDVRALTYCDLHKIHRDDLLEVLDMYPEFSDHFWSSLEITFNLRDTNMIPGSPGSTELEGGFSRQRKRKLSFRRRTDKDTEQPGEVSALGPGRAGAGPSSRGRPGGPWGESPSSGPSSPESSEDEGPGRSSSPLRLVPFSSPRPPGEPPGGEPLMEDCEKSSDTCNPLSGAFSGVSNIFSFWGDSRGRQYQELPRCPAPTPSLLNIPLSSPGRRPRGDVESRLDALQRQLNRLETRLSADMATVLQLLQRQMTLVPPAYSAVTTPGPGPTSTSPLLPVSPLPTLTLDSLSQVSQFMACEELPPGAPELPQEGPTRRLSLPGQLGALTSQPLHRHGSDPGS

[14] = Oral bioavailability in rat at 10 mg/kg; type: ADME, organism-based; conditions: in vivo
[15] = Oral bioavailability in dog at 5 mg/kg; type: ADME, organism-based, Canis lupus familiaris; conditions: in vivo
[16] = Drug metabolism in dog hepatocytes assessed as demethylated metabolite formation; type: ADME, cell-based, Canis lupus familiaris, Hepatocyte
[17] = Clearance in mouse at 1 mg/kg, iv; type: ADME, organism-based; conditions: in vivo
[18] = Metabolic stability in rat liver microsomes assessed as parent compound remaining at 0.5 uM after 10 mins incubation by LC-MS/MS analysis relative to control; type: ADME, Microsome; conditions: read-out: Activity
[19] = Half life in cynomolgus monkey at 1 mg/kg, iv; type: ADME, organism-based, Macaca fascicularis; conditions: in vivo
[20] = AUC in dog at 1 mg/kg, iv; type: ADME, organism-based, Canis lupus familiaris; parameters: dose 1 mg/kg; conditions: in vivo
Cytochrome P450 (CYP) [21] = target: Cytochrome P450 (CYP) (Homo sapiens, UniProt P04798+P05177+P05181+P08684+P10632+P10635+P11509+P11712+P13584+P20813+P20815+P20853+P24462+P24903+P33260+P33261+P51589+P78329+P98187+Q02928+Q08477+Q16678+Q16696+Q5TCH4+Q6VVX0+Q7Z449+Q8TAV3+Q96SQ9+Q9HB55); assay: Metabolic stability assessed as human CYP-mediated metabolism by measuring half life; type: ADME, protein assay
[22] = AUC in mouse at 1 mg/kg, iv; type: ADME, organism-based; parameters: dose 1 mg/kg; conditions: in vivo
Cytochrome P450 2C19 = Cytochrome P450 2C19 (Homo sapiens, UniProt P33261); assay: Inhibition of human CYP2C19
Chain of Cytochrome P450 2C19 (P33261 whole entry): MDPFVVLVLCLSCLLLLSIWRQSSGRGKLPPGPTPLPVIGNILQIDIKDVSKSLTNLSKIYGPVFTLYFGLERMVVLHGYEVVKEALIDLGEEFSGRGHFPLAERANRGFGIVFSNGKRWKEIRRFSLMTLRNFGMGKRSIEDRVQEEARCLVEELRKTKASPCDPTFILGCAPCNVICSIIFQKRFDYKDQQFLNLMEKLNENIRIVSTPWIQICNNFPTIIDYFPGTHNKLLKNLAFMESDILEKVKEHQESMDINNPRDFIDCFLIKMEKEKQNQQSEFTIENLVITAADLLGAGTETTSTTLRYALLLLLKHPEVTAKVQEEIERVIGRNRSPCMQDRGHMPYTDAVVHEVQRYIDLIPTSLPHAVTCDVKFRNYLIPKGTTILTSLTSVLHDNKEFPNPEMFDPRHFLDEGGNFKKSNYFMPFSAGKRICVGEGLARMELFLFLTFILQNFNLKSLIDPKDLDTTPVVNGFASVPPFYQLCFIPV

[23] = target: Voltage-gated inwardly rectifying potassium channel KCNH2 (Homo sapiens, UniProt Q12809); assay: Inhibition of hERG (unknown origin)
Chain of Voltage-gated inwardly rectifying potassium channel KCNH2 (Q12809 whole entry): as the sequence (Q12809 whole entry) above

Cytochrome P450 2C8 = target: T1, Cytochrome P450 2C8 (Homo sapiens, UniProt P10632); assay: Inhibition of human CYP2C8
T1 sequence (P10632 whole entry): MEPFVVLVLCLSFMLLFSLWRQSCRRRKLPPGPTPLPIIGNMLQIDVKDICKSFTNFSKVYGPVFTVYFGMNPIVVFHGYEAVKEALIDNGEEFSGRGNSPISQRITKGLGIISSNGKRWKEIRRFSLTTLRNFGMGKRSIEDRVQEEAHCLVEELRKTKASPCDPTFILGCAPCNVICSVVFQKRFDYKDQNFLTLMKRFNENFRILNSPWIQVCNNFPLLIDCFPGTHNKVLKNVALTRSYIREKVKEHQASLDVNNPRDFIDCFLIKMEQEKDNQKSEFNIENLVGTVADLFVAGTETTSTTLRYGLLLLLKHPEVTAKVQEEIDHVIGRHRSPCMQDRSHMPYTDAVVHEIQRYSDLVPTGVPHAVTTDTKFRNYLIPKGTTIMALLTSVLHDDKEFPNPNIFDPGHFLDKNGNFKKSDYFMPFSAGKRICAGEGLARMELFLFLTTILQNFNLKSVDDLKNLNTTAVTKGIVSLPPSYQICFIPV

[24] = system: UDP-glucuronosyltransferases (UGT); assay: Metabolic stability assessed as rat UGT-mediated metabolism by measuring half life; type: ADME
[25] = Metabolic stability in mouse liver microsomes assessed as parent compound remaining at 0.5 uM after 10 mins incubation by LC-MS/MS analysis relative to control; type: ADME, Microsome; conditions: read-out: Activity

CC[C@@H](NC(=O)c1ccc(OC)nc1)[C@H]1CC[C@@H](c2ccnc(OC)c2C(F)F)CC1
half-life [1]: > 2 h
F [2]: 4.5%
AUC at 24 h [3]: 13 µM·h
half-life (Cytochrome P450 (CYP) [4]): 0.183 h
AUC [5]: 1.3 µM·h
AUC [6]: 0.029 µM·h
Vd [7]: 6.2 L/kg
Papp B→A [8]: 5.6 ×10⁻⁶ cm/s
IC50 [9]: 0.0023 µM
Drug metabolism [10]: Metabolite_Detected
AUC at 24 h [11]: 9.2 µM·h
half-life [12]: 5 h
AUC [13]: 3.9 µM·h
inhibition at 30 µM (hERG (KCNH2)): 61%
bioavailability [14]: 34%
bioavailability [15]: 28%
Drug metabolism [16]: Metabolite_Detected
clearance [17]: 33 mL/min/kg
remaining at 10 min, 0.5 µM [18]: 90%
half-life [19]: 11 h
AUC [20]: 2.3 µM·h
half-life (Cytochrome P450 (CYP) [21]): 0.533 h
AUC [22]: 1.2 µM·h
IC50 (Cytochrome P450 2C19): 9.5 µM
IC50 [23]: 17.4 µM
IC50 (Cytochrome P450 2C8): 4.01 µM
half-life [24]: > 2 h
remaining at 10 min, 0.5 µM [25]: 60%

From ChEMBL document CHEMBL4823289, “Conformational-Analysis-Guided Discovery of 2,3-Disubstituted Pyridine IDO1 Inhibitors” (ACS Med Chem Lett, 2021)
